Results as given in patent publication US20110190379A1 (priority 2008, published 2011).
“And” between values parts separate entries of the source, which are not always exact repeats. Equal values may be shown once. Read-outs that look alike come from different tables or passages of the source.

Experiments:
[1] = test system: wheat leaves; settings: in vivo
[2] = test system: Arabidopsis seed germination; type: in vivo
[3] = test system: F. graminearum; type: in vivo
[4] = test system: F. graminearum; type: in vivo; remark: listed apart in the source
[5] = test system: F. graminearum; settings: in vivo
[6] = test system: F. graminearum; settings: in vivo; remark: listed apart in the source

Which results are given for `CC1=C[C@H]2O[C@@H]3[C@H](O)C[C@](C)([C@@]2(CO)[C@H](O)C1=O)[C@]31CO1` [DON, deoxynivalenol]?
cell death about the inoculation point (trypan blue) [1]: extensive cell death; size of lesions (DON-induced cell death) [1]: 0.127 cm^2 and 0.066 cm^2; effect on seed germination ([2]; FIG. 6): inhibits seed germination

For `C=C1C[C@]23C[C@@]1(O)CC[C@H]2[C@@]12C=C[C@H](O)[C@@](C)(C(=O)O1)[C@H]2[C@@H]3C(=O)O` [GA, Gibberellic Acid], which “effect on DON inhibition of seed germination” value ([2]; FIG. 7) is on record?
Its value is “can reverse the inhibitory effect of DON”.

For `C=C` [ethylene], which lesion size ([3]; wheat (Hobbit 'sib') leaves, ethephon 50 mM or silver thiosulphate 150 μm in agar) is on record?
The lesion size was “did not markedly alter”.

And the conidial production ([3]; wheat leaves, 7 days, ET P=0.05, reduced ET perception (silver) P=0.003)?
Its conidial production is “significantly greater”.

And the lesion size ([4]; barley (Golden promise) leaves, ethephon 50 mM or silver thiosulphate 150 μm in agar)?
The lesion size was “did not markedly alter”.

What about the conidial production ([4]; barley leaves, 7 days, ET P=0.005, reduced ET perception (silver) P=0.043) of the same compound?
The conidial production was “significantly greater”.

What about the conidial production [5] of the same compound?
Its conidial production is “enhanced susceptibility”.

What about the disease severity [5] of the same compound?
Its disease severity is “enhanced susceptibility”.

What does the source list for silver ions?
conidial production ([3]; in vivo): significantly reduced; lesion size ([3]; in vivo): did not markedly alter; conidial production ([4]; in vivo): significantly reduced; lesion size ([4]; in vivo): did not markedly alter; AUDPC versus water treated heads [6]: significantly lower; disease development reduced versus water [6]: 12-88%

For silver thiosulphate, which conidial production [5] is on record?
The conidial production was “enhanced resistance”.

And the disease severity [5]?
Its disease severity is “enhanced resistance”.
